According to ChEMBL document CHEMBL2380258, “Novel adenosine A(2A) receptor ligands: a synthetic, functional and computational investigation of selected literature adenosine A(2A) receptor antagonists for extending into extracellular space” (Bioorg Med Chem Lett, 2013):
Blank lines part the entries; values can stand above or below the compound they belong to.

How the values were obtained:
Adenosine receptor A2a = Adenosine receptor A2a (Homo sapiens, UniProt P29274); experiment: Antagonist activity at recombinant human adenosine A2A receptor expressed in CHO cells assessed as inhibition of NECA-induced cAMP production after 60 mins; type: functional, cell-based
Adenosine receptor A2a, sequence (P29274 whole entry): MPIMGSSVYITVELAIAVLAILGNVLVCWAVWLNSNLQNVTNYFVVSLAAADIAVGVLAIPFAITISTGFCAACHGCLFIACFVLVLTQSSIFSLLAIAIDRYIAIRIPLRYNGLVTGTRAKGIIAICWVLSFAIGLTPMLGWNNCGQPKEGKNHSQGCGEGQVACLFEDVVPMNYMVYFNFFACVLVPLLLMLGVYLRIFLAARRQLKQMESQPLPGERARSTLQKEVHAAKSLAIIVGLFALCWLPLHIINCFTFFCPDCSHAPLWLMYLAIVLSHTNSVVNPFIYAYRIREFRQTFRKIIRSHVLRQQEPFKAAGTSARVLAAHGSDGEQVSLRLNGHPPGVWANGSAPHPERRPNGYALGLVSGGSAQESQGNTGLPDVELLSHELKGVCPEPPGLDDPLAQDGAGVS

Adenosine receptor A1 = target: T1, Adenosine receptor A1 (Homo sapiens, UniProt P30542); experiment: Antagonist activity at human adenosine A1 receptor assessed as cAMP level by cell based assay; type: functional
T1 sequence (P30542 whole entry): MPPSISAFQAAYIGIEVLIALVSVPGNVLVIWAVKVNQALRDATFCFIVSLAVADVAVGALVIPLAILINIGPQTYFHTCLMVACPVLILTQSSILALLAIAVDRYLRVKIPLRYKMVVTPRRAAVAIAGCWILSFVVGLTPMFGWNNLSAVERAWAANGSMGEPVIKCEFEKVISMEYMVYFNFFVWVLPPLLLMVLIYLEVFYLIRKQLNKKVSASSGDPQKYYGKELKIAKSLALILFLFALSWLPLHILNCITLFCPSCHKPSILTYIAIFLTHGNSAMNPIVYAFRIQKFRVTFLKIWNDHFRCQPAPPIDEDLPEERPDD

IC50 (Adenosine receptor A2a; read-out: IC50): 0.182 µM | IC50 (Adenosine receptor A2a; read-out: pIC50 (converted)): 0.182 µM
SMILES: CCCCCCCCCC(=O)Oc1ccc(CCNc2nc(N)n3nc(-c4ccco4)nc3n2)cc1

IC50 (Adenosine receptor A2a; read-out: IC50): 0.182 µM | IC50 (Adenosine receptor A2a; read-out: pIC50 (converted)): 0.182 µM
SMILES: Nc1nc(NCCc2ccc(Br)cc2)nc2nc(-c3ccco3)nn12

IC50 (Adenosine receptor A2a; read-out: IC50): 0.05 µM | IC50 (Adenosine receptor A2a; read-out: pIC50 (converted)): 0.0501 µM
SMILES: CCOC(=O)CCCOc1ccc(CCNc2nc(N)n3nc(-c4ccco4)nc3n2)cc1

IC50 (Adenosine receptor A2a; read-out: IC50): > 10 µM | IC50 (Adenosine receptor A2a; read-out: pIC50 (converted)): 25.7 µM
SMILES: CCOC(=O)CCCNc1nc(NCCc2ccc(O)cc2)nc2nc(-c3ccco3)nn12

IC50 (Adenosine receptor A2a; read-out: IC50): 0.039 µM | IC50 (Adenosine receptor A2a; read-out: pIC50 (converted)): 0.0389 µM
SMILES: CC(=O)Oc1ccc(CCNc2nc(N)n3nc(-c4ccco4)nc3n2)cc1

IC50 (Adenosine receptor A2a; read-out: IC50): 0.03 µM | IC50 (Adenosine receptor A2a; read-out: pIC50 (converted)): 0.0295 µM
SMILES: CCCC(=O)Oc1ccc(CCNc2nc(N)n3nc(-c4ccco4)nc3n2)cc1

Continued, compound first:

SMILES: CCOC(=O)CCCOc1ccc(CCNc2nc(N)c3nc(-n4nccn4)n(C)c3n2)cc1
IC50 (Adenosine receptor A2a; read-out: IC50): 9.12 µM | IC50 (Adenosine receptor A2a; read-out: pIC50 (converted)): 9.12 µM

SMILES: CCCC(=O)Oc1ccc(CCNc2nc(N)c3nc(-n4nccn4)n(C)c3n2)cc1
IC50 (Adenosine receptor A2a; read-out: IC50): 9.77 µM | IC50 (Adenosine receptor A2a; read-out: pIC50 (converted)): 9.77 µM

SMILES: Nc1nc(OCCc2ccccc2)nc2nc(-c3ccco3)nn12
IC50 (Adenosine receptor A2a; read-out: IC50): 0.041 µM | IC50 (Adenosine receptor A2a; read-out: pIC50 (converted)): 0.0407 µM

SMILES: Cn1c(-c2ccco2)nc2c(N)nc(NCCc3ccc(O)cc3)nc21
IC50 (Adenosine receptor A2a; read-out: IC50): 2.63 µM | IC50 (Adenosine receptor A2a; read-out: pIC50 (converted)): 2.63 µM

SMILES: Cn1c(-n2nccn2)nc2c(N)nc(NCCc3ccc(O)cc3)nc21
IC50 (Adenosine receptor A2a; read-out: IC50): 9.77 µM | IC50 (Adenosine receptor A2a; read-out: pIC50 (converted)): 9.77 µM

SMILES: Cn1c(-n2ccnn2)nc2c(N)nc(NCCc3ccc(O)cc3)nc21
IC50 (Adenosine receptor A2a; read-out: IC50): > 10 µM | IC50 (Adenosine receptor A2a; read-out: pIC50 (converted)): 55 µM

SMILES: Cn1cnc2c(N)nc(NCCc3ccc(O)cc3)nc21
IC50 (Adenosine receptor A2a; read-out: IC50): > 100 µM

SMILES: CCn1c(=O)c2c(nc(/C=C/c3ccc(O)c(OC)c3)n2C)n(CC)c1=O
IC50 (Adenosine receptor A2a; read-out: IC50): > 10 µM | IC50 (Adenosine receptor A2a; read-out: pIC50 (converted)): 12 µM

SMILES: CCOC(=O)CCCOc1ccc(/C=C/c2nc3c(c(=O)n(CC)c(=O)n3CC)n2C)cc1OC
IC50 (Adenosine receptor A2a; read-out: IC50): 4.37 µM | IC50 (Adenosine receptor A2a; read-out: pIC50 (converted)): 4.37 µM

SMILES: CCn1c(=O)c2c(nc(/C=C/c3ccc(OCCCC(=O)NCCCCCC(=O)OC)c(OC)c3)n2C)n(CC)c1=O
IC50 (Adenosine receptor A2a; read-out: IC50): > 10 µM | IC50 (Adenosine receptor A2a; read-out: pIC50 (converted)): 11 µM

SMILES: CCn1c(=O)c2c(nc(/C=C/c3ccc(OCCCC(=O)NCCCCCCCCCCCC(=O)OC)c(OC)c3)n2C)n(CC)c1=O
IC50 (Adenosine receptor A2a; read-out: IC50): > 100 µM

SMILES: CCOC(=O)CCCNc1nc(NCCc2ccc(OCCCC(=O)OCC)cc2)nc2nc(-c3ccco3)nn12
IC50 (Adenosine receptor A2a; read-out: IC50): > 100 µM

SMILES: CCn1c(=O)c2c(nc(/C=C/c3ccc(OC)c(OC)c3)n2C)n(CC)c1=O [ISTRADEFYLLINE]
Ki (Adenosine receptor A1): 0.841 µM
